Laboratory results reported in patent publication US8247211B2, “Glycopeptide antibiotics” (American Cyanamid Company, priority 2001, dated 2012).
≈ marks a conversion by molar mass, not a printed value.

Experiments:
Assay in all cases: In vitro antibacterial evaluation: minimum inhibitory concentration (MIC), broth dilution method
Type in all cases: cell-based
[1] = test system: Escherichia coli
Procedure, shortened: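 NCCLS M7-A2 broth dilution with Mueller-Hinton II, testing 64-0.06 μg/mL antibiotic against 5×10^5 CFU/mL inocula. Test strains include recent methicillin-, penicillin- or vancomycin-resistant clinical isolates. MIC is the lowest concentration preventing growth.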

[2] = test system: Staphylococcus sp.; settings: for MIC Staphylococcus aureus (ATCC 29213) / MIC Staphylococcus aureus (GC 1131) / MIC Staphylococcus aureus (GC 3051) / MIC Staphylococcus aureus (GC 3053) / MIC Staphylococcus aureus (GC 4541) / MIC Staphylococcus aureus (GC 4542) / MIC Staphylococcus aureus (GC 4544) / MIC Staphylococcus aureus (GC 4545): broth dilution, 18 hours at 35° C.
Procedure, shortened: (§1)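 Broth dilution per NCCLS M7-A2 in Muller-Hinton II […], inoculum 5×10^5 CFU/mL, antibiotic tested over 64-0.06 μg/mL. MIC is taken as the lowest concentration that inhibits growth. Panel includes recent clinical isolates resistant to methicillin, penicillin and/or vancomycin.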

[3] = test system: Streptococcus sp.
Procedure, shortened: as §1

[4] = test system: Enterococcus sp.
Procedure, shortened: as §1

[5] = broth dilution, inoculum 5×10^5 CFU/mL, 18 hours at 35° C.

For `CC(C)=CCCC(C)=CCOc1ccc(C2OCC3OC(OC4C(CO)OC(Oc5ccc(CC6NC(=O)C(C(C)c7ccccc7)NC(=O)CNC(=O)C(CO)NC(=O)C(C(O)C7CNC(=N)N7C7OC(CO)C(O)C(O)C7O)NC(=O)C(C(O)C7CNC(=N)N7)NC6=O)cc5)C(O)C4O)C(O)C(O)C3O2)cc1` (stereo not drawn) [Example 183, Cyclo[glycyl-β-methylphenylalanyl-O-[4-O-[4,6-O-[4-[(3,7-dimethylocta-2,6-dien-1-yl)oxy]-benzylidene]hexopyranosyl]hexopyranosyl]tyrosyl-3-(2-iminoimidazolidin-4-yl)seryl-3-(3-hexopyranosyl-2-iminoimidazolidin-4-yl)serylseryl]], the “MIC Escherichia coli (ATCC 25922)” value ([1]; strain ATCC 25922) was >64 µg/mL, the “MIC Escherichia coli (GC 4559)” value ([1]; strain GC 4559) was >64 µg/mL and the “MIC Escherichi coli (GC 4560)” value ([1]; strain GC 4560) was 4 µg/mL (≈ 2.6 µM). For the same compound, the “MIC Staphylococcus aureus (ATCC 29213)” value ([2]; 5×10^5 CFU/mL) was 4 µg/mL (≈ 2.6 µM), the “MIC Staphylococcus aureus (GC 1131)” value ([2]; 5×10^5 CFU/mL) was 8 µg/mL (≈ 5.21 µM) and the “MIC Staphylococcus aureus (GC 3051)” value ([2]; 5×10^5 CFU/mL) was 2 µg/mL (≈ 1.3 µM). For the same compound, the “MIC Staphylococcus aureus (GC 3053)” value ([2]; 5×10^5 CFU/mL) was 2 µg/mL (≈ 1.3 µM), the “MIC Staphylococcus aureus (GC 4541)” value ([2]; 5×10^5 CFU/mL) was 8 µg/mL (≈ 5.21 µM) and the “MIC Staphylococcus aureus (GC 4542)” value ([2]; 5×10^5 CFU/mL) was 4 µg/mL (≈ 2.6 µM). For the same compound, the “MIC Staphylococcus aureus (GC 4544)” value ([2]; 5×10^5 CFU/mL) was 4 µg/mL (≈ 2.6 µM), the “MIC Staphylococcus aureus (GC 4545)” value ([2]; 5×10^5 CFU/mL) was 4 µg/mL (≈ 2.6 µM) and the “MIC Staphylococcus aureus (ATCC 29213)” value ([2]; strain ATCC 29213) was 4 µg/mL (≈ 2.6 µM). For the same compound, the “MIC Staphylococcus aureus (GC 1131)” value ([2]; strain GC 1131) was 8 µg/mL (≈ 5.21 µM), the “MIC Staphylococcus aureus (GC 3051)” value ([2]; strain GC 3051) was 2 µg/mL (≈ 1.3 µM) and the “MIC Staphylococcus aureus (GC 3053)” value ([2]; strain GC 3053) was 2 µg/mL (≈ 1.3 µM). For the same compound, the “MIC Staphylococcus aureus (GC 4541)” value ([2]; strain GC 4541) was 8 µg/mL (≈ 5.21 µM), the “MIC Staphylococcus aureus (GC 4542)” value ([2]; strain GC 4542) was 4 µg/mL (≈ 2.6 µM) and the “MIC Staphylococcus aureus-SMITH (GC 4543)” value ([2]; strain GC 4543) was 4 µg/mL (≈ 2.6 µM). For the same compound, the “MIC Staphylococcus aureus (GC 4544)” value ([2]; strain GC 4544) was 4 µg/mL (≈ 2.6 µM), the “MIC Staphylococcus aureus (GC 4545)” value ([2]; strain GC 4545) was 4 µg/mL (≈ 2.6 µM) and the “MIC Staphylococcus haemolyticus (GC 4546)” value ([2]; strain GC 4546) was 8 µg/mL (≈ 5.21 µM). The “MIC Coagulase Negative Staphylococcus (GC 4547)” value ([2]; strain GC 4547) was 4 µg/mL (≈ 2.6 µM), the “MIC Coagulase Negative Staphylococcus (GC 4548)” value ([2]; strain GC 4548) was 2 µg/mL (≈ 1.3 µM) and the “MIC Coagulase Negative Staphylococcus (GC 4549)” value ([2]; strain GC 4549) was 4 µg/mL (≈ 2.6 µM). For the same compound, the “MIC Coagulase Negative Staphylococcus (GC 4551)” value ([2]; strain GC 4551) was 4 µg/mL (≈ 2.6 µM), the “MIC Coagulase Negative Staphylococcus (GC 6257)” value ([2]; strain GC 6257) was 2 µg/mL (≈ 1.3 µM) and the “MIC Streptococcus agalactiae (GC 4564)” value [3, 5] was <0.06 µg/mL. The “MIC Streptococcus pneumoniae (ATCC 6301)” value [3, 5] was <0.06 µg/mL, the “MIC Streptococcus pneumoniae (GC 1894)” value [3, 5] was <0.06 µg/mL and the “MIC Streptococcus pneumoniae (GC 4565)” value [3, 5] was <0.06 µg/mL. For the same compound, the “MIC Streptococcus pyogenes (GC 4563)” value [3, 5] was <0.06 µg/mL, the “MIC Streptococcus pneumoniae (ATCC 6301)” value ([3]; strain ATCC 6301) was <0.06 µg/mL and the “MIC Streptococcus pneumoniae (GC 1894)” value ([3]; strain GC 1894) was <0.06 µg/mL. The “MIC Streptococcus pyogenes (GC 4563)” value ([3]; strain GC 4563) was <0.06 µg/mL, the “MIC Streptococcus agalactiae (GC 4564)” value ([3]; strain GC 4564) was <0.06 µg/mL and the “MIC Streptococcus pneumoniae (GC 4565)” value ([3]; strain GC 4565) was <0.06 µg/mL. For the same compound, the “MIC Enterococcus avium (GC 4558)” value [4, 5] was 2 µg/mL (≈ 1.3 µM), the “MIC Enterococcus faecalis (ATCC 29212)” value [4, 5] was 8 µg/mL (≈ 5.21 µM) and the “MIC Enterococcus faecalis (GC 2242)” value [4, 5] was 8 µg/mL (≈ 5.21 µM). The “MIC Enterococcus faecalis (GC 2691)” value [4, 5] was 2 µg/mL (≈ 1.3 µM), the “MIC Enterococcus faecalis (GC 3059)” value [4, 5] was 4 µg/mL (≈ 2.6 µM) and the “MIC Enterococcus faecalis (GC 4552)” value [4, 5] was 8 µg/mL (≈ 5.21 µM). For the same compound, the “MIC Enterococcus faecalis (GC 4553)” value [4, 5] was 4 µg/mL (≈ 2.6 µM), the “MIC Enterococcus faecalis (GC 4554)” value [4, 5] was 4 µg/mL (≈ 2.6 µM) and the “MIC Enterococcus faecalis (GC 6189)” value [4, 5] was 2 µg/mL (≈ 1.3 µM). For the same compound, the “MIC Enterococcus faecium (GC 2243)” value [4, 5] was 2 µg/mL (≈ 1.3 µM), the “MIC Enterococcus faecium (GC 4556)” value [4, 5] was 8 µg/mL (≈ 5.21 µM) and the “MIC Enterococcus faecium (GC 4557)” value [4, 5] was 4 µg/mL (≈ 2.6 µM). For the same compound, the “MIC Enterococcus faecalis (ATCC 29212)” value ([4]; strain ATCC 29212) was 8 µg/mL (≈ 5.21 µM), the “MIC Enterococcus faecalis (GC 2242)” value ([4]; strain GC 2242) was 8 µg/mL (≈ 5.21 µM) and the “MIC Enterococcus faecium (GC 2243)” value ([4]; strain GC 2243) was 2 µg/mL (≈ 1.3 µM). The “MIC Enterococcus faecalis (GC 2691)” value ([4]; strain GC 2691) was 2 µg/mL (≈ 1.3 µM), the “MIC Enterococcus faecalis (GC 3059)” value ([4]; strain GC 3059) was 4 µg/mL (≈ 2.6 µM) and the “MIC Enterococcus faecalis (GC 4552)” value ([4]; strain GC 4552) was 8 µg/mL (≈ 5.21 µM). The “MIC Enterococcus faecalis (GC 4553)” value ([4]; strain GC 4553) was 4 µg/mL (≈ 2.6 µM), the “MIC Enterococcus faecalis (GC 4554)” value ([4]; strain GC 4554) was 4 µg/mL (≈ 2.6 µM) and the “MIC Enterococcus faecium (GC 4556)” value ([4]; strain GC 4556) was 8 µg/mL (≈ 5.21 µM). For the same compound, the “MIC Enterococcus faecium (GC 4557)” value ([4]; strain GC 4557) was 4 µg/mL (≈ 2.6 µM), the “MIC Enterococcus avium (GC 4558)” value ([4]; strain GC 4558) was 2 µg/mL (≈ 1.3 µM) and the “MIC Enterococcus faecalis (GC 6189)” value ([4]; strain GC 6189) was 2 µg/mL (≈ 1.3 µM).
